Data taken from patent publication US20210078958A1, “QUINAZOLINE DERIVATIVE AND USE THEREOF” (MEDSHINE DISCOVERY INC., priority 2017, published 2021).

Legend:
HER4 (ErbB4) = HER4 (ErbB4) (Homo sapiens, UniProt Q15303); experiment: in vitro enzyme activity, HER4 (ErbB4); assay type: biochemical; conditions: human ErbB4, [γ-33P]ATP, poly(Glu, Tyr) substrate
Protocol: (§1) The purpose of this assay is to detect the in vitro inhibitory activity of compounds on HER1 (ErbB1), HER2 (ErbB2), and HER4 (ErbB4). The enzymes used in this assay are human ErbB1, ErbB2 and ErbB4. Eurofins Pharma Discovery Service provided the method for activity detection.
(§2) Steps and Method of the Assay (96-Well Plate):
(§3) A buffer solution of the test compounds in a dilution of 5-fold (5 μL), polypeptide substrate poly(Glu, Tyr) (4:1) (2.5 μL), ErbB (4-20 ng, 2.5 μL), MnCl2 (50 mM, 1.25 μL), dH2O (3.75 μL), and [γ-^33P]ATP (10 μL) were added, and incubated at 30° C. for 10 minutes. The reaction was terminated by adding 3% phosphoric acid. 10 μL of the sample was taken and transferred to Filtermate A. The filter disc was washed 3 times with 75 mM phosphoric acid and once with methanol. The filter disc was transferred to a sealed plastic bag and the scintillation mixture (4 mL) was added. The intensity of the emitted photon was detected by a scintillation luminescence counter. The CPM (times/min) of the enzyme sample was compared with the CPM of the internal control sample. The level of photon intensity reflected the degree of the tyrosine kinase activity.

HER2 (ErbB2) = HER2 (ErbB2) (Homo sapiens, UniProt P04626); experiment: in vitro enzyme activity, HER2 (ErbB2); assay type: biochemical; conditions: human ErbB2, [γ-33P]ATP, poly(Glu, Tyr) substrate
Protocol: as §1, §2, §3

NCI-N87 cell = experiment: inhibitory activity on cell proliferation (Cell-Titer-Glo), NCI-N87; assay type: cell-based; conditions: Homo sapiens
Source text: Purpose of the assay: to detect the inhibitory activity of the test compounds on cell proliferation.
Principle of the assay: the luciferase in a Cell-Titer-Glo reagent produces oxidized luciferin with luciferin, oxygen and ATP as reaction substrates, and releases energy in the form of light. Since the luciferase reaction requires ATP, the total amount of light generated by the reaction is proportional to the total amount of ATP that reflects cell viability.
Cell Titer-Glo cell viability assay kit with luminescence (Promega #G7573)
According to the schematic diagram of the cell seed plate, cells were seeded in a 384- or 96-well plate at a density of 1000 cells per well and 25 μL per well, and 25 μL of PBS was added to the wells near edge of the place where no cells were seeded.
(1) The stock solution of the compounds has a concentration of 10 mM, and the compounds were diluted with DMSO to an initial concentration of 4 mM. The compounds were added to the plate with stock solution of compounds, 9 μL per well.
(2) The compounds were diluted with an ECHO liquid workstation, where 125 nL of compounds were added to each well of the cell plate, 125 nL of DMSO was added to each of the cell well in columns 2 and 23, and 125 nL of DMSO was added to each PBS well in columns 1 and 24.
2.3 After addition of the compounds, the cell plate was centrifuged at 1000 rpm for 1 min, and then placed in a 37° C., 5% CO2 incubator for incubation for 3 days.
The cell plate was taken out from the incubator and equilibrated at room temperature for 30 minutes. 25 μL of Cell-Titer-Glo reagent was added to each well, shaken for one minute to allow well mixed, and centrifuged at 1000 rpm for 1 minute. After 10 minutes, the plate was read on PerkinElmer Envision, and the […] reading time was set to 0.2 second.

HER1 (ErbB1) = HER1 (ErbB1) (Homo sapiens, UniProt P00533); experiment: in vitro enzyme activity, HER1 (ErbB1); assay type: biochemical; conditions: human ErbB1, [γ-33P]ATP, poly(Glu, Tyr) substrate
Protocol: as §1, §2, §3

[1] = tested on: subcutaneous xenograft tumor of human gastric cancer NCI-N87 cells; assay type: in vivo; conditions: for Tumor volume (mm3) (Day 21) / T/C (%) / TGI (%): 3 mg/kg, NCI-N87 xenograft; for Tumor volume (mm3) (Day 21): Mean ± SEM; for T/C (%) / TGI (%): day 21; for body weight of test animals (reference index for drug toxicity): mouse, in vivo
Protocol: Purpose of the assay: to evaluate the in vivo efficacy of compounds to be tested on subcutaneous xenograft tumor of human gastric cancer NCI-N87 cells in a BALB/c nude mouse model.
Animals of the assay: female BALB/c nude mice, 6-8 weeks old, weighted 18-22 grams; supplier: shanghai sippr bk laboratory animals Ltd.
Human gastric cancer NCI-N87 cells were cultured in monolayer in vitro. The culture conditions were RPMI-1640 medium plus 10% fetal bovine serum, 100 U/mL penicillin, 100 μg/mL streptomycin and 2 mM glutamine, 37° C., 5% CO2. The passaging was performed by the conventional digestion with trypsin-EDTA twice a week. When the cell saturation was 80%-90%, the cells were collected, counted and inoculated.
0.2 mL (10×10^6 cells) of NCI-N87 cells were inoculated subcutaneously on the right back of each nude mouse (PBS+Matrigel, 1:1). When the average tumor volume reached 145 mm^3, administration to each group was started.
The test compounds were formulated into a 0.3 mg/mL clear solution in the solvents of 10% NMP (N-methylpyrrolidone)+10% ethylene glycol stearate+80% water.
The assay index is to investigate whether tumor growth is inhibited, delayed or cured. Tumor diameter was measured twice a week with a vernier caliper. The calculation formula of tumor volume is: V=0.5a×b^2, wherein a and b represent the long and short diameters of tumor, respectively.
The antitumor efficacy of the compounds were evaluated by TGI (%) or relative tumor proliferation rate T/C (%). TGI (%) reflects the tumor growth inhibition rate. TGI (%) is calculated as follows: TGI (%)=[1−(average tumor volume at the end of administration for a certain treatment group−average tumor volume at the beginning of administration for this treatment group)/(average tumor volume at the end of treatment for a solvent control group−average tumor volume at the beginning of administration for this solvent control group)][…].
Relative tumor proliferation rate T/C (%): the calculation formula is as follows: T/C %=TRTV/CRTV (TRTV: RTV for the treatment group; CRTV: RTV for the negative control group). Relative tumor volume (RTV) is calculated based on tumor measurement results. The calculation formula is RTV=Vt/V0, wherein V0 is the average tumor volume measured at the beginning of administration (i.e., d0) to each group, Vt is the average tumor volume at a certain measurement, and the data for TRTV and CRTV were taken on the same day.
The tumor weight was measured after the assay is over and the T/C weight percentage was calculated. T weight and C weight represent the tumor weight of the administration group and the vehicle control group, respectively.
Statistical analysis included the mean and standard error (SEM) of tumor volume at each time point in each group. […] The comparison between two groups was analyzed by T-test, and the comparison among three or more groups was analyzed by one-way ANOVA. […] All data analysis was carried out with SPSS 17.0. p<0.05 was considered a significant difference.

[2] = NCI-N87, 72 h, incubation for 3 days, Cell-Titer-Glo
[3] = NCI-N87, footnote d: initial dilution concentration of compounds is 10 μM

Chain of HER4 (ErbB4) (Q15303 26-1308): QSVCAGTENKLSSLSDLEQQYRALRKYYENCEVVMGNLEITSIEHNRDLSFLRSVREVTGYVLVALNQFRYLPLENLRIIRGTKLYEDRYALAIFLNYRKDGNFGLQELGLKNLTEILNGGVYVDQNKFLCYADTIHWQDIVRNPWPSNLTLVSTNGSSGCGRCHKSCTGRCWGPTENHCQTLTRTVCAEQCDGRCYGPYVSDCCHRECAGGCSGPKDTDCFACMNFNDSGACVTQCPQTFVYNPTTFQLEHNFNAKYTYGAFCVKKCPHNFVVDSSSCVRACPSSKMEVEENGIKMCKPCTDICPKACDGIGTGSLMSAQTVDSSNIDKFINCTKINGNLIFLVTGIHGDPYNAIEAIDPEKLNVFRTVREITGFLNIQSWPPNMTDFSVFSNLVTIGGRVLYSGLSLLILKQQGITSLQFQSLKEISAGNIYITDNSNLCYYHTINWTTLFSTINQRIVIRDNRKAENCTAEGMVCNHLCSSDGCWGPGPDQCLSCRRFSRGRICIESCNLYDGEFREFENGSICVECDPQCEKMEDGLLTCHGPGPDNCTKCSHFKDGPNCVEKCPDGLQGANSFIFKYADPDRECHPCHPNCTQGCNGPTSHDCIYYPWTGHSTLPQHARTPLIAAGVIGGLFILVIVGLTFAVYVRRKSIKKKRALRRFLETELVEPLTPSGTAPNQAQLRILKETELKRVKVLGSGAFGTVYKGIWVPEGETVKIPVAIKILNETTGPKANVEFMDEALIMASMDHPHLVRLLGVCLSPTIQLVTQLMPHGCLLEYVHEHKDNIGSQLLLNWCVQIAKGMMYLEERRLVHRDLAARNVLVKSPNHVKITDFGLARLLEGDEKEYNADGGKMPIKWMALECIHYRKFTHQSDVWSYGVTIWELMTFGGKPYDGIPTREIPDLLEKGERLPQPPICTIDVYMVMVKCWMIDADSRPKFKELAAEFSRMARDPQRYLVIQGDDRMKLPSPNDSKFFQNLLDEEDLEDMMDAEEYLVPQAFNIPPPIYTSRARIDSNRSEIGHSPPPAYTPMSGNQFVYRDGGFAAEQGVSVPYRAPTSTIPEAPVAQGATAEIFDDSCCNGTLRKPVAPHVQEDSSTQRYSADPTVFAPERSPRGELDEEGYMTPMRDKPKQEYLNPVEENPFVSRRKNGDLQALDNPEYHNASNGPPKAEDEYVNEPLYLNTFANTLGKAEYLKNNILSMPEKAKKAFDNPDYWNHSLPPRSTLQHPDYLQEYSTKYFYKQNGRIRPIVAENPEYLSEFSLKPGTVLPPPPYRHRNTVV
Chain of HER2 (ErbB2) (P04626 23-1255): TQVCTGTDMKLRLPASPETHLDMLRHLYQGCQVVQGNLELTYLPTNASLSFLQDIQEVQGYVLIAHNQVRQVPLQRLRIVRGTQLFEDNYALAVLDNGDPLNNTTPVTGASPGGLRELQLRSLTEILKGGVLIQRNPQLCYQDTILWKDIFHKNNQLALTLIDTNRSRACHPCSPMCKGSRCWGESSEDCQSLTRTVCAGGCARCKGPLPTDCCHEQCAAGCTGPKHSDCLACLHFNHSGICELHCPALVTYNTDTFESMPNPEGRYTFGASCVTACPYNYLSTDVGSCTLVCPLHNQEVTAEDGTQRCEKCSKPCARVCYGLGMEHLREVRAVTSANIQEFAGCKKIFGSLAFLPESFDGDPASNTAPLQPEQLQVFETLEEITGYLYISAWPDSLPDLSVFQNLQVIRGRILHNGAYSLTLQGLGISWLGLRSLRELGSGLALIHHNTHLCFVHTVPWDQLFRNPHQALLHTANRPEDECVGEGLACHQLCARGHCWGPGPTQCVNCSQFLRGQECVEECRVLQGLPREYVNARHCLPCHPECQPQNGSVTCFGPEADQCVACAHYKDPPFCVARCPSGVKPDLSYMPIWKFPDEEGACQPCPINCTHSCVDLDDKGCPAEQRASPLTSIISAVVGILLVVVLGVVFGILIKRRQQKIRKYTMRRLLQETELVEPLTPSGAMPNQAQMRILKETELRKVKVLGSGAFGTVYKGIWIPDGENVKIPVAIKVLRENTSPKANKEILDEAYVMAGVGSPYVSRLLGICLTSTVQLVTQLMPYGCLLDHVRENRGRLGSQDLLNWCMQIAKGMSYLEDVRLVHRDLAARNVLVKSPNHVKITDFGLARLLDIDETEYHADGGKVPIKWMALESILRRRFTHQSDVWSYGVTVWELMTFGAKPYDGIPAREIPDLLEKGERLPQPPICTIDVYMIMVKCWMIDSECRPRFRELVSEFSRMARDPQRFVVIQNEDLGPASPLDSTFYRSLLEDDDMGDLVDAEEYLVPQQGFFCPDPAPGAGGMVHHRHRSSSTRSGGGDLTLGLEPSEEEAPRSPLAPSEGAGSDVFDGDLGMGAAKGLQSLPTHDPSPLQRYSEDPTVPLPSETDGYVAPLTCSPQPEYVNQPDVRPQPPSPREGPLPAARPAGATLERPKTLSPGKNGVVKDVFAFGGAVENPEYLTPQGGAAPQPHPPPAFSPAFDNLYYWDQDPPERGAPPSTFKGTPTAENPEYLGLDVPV
Chain of HER1 (ErbB1) (P00533 25-1210): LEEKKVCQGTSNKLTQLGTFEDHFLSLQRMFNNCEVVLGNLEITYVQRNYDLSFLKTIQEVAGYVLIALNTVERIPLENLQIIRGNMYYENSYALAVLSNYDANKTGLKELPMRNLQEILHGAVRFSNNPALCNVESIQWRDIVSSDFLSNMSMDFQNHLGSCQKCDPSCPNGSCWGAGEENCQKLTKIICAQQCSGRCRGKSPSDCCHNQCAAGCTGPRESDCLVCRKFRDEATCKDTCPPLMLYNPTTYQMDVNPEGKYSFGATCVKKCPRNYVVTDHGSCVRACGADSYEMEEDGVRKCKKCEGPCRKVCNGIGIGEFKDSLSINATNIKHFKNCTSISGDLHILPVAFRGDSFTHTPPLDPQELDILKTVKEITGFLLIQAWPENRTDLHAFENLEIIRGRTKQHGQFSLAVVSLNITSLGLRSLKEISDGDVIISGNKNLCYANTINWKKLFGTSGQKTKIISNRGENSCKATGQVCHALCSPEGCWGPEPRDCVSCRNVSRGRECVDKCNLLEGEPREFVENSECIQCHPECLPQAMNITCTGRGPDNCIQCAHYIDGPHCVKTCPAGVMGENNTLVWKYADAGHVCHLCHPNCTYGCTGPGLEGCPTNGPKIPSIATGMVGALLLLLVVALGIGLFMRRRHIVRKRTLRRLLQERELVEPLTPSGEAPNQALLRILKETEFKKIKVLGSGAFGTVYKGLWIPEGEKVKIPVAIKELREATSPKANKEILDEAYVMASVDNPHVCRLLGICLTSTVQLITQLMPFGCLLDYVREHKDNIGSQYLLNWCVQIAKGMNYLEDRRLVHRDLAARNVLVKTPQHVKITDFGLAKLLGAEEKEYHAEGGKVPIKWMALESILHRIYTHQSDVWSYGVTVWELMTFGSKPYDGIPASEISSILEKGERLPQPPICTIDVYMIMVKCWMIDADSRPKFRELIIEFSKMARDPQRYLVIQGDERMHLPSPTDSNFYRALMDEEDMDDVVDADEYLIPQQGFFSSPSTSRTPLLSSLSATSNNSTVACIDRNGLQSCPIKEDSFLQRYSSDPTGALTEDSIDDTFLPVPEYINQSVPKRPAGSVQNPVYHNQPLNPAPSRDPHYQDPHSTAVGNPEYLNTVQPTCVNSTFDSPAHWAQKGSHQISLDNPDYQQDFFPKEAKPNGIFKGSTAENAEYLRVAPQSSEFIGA

Row | SMILES | IC50 (HER4 (ErbB4)) | IC50 (HER2 (ErbB2)) | IC50 (NCI-N87 cell; [2]) | IC50 (HER1 (ErbB1)) | Tumor volume (mm3) (Day 21) [1] | T/C (%) [1] | TGI (%) [1] | body weight of test animals (reference index for drug toxicity) [1] | IC50 (NCI-N87 cell; [3])
1 | C=CC(=O)N1[C@@H]2CC[C@H]1C[C@H](Oc1cc3c(Nc4ccc(Cl)c(Cl)c4F)ncnc3cc1OCCC(C)(C)O)C2 [Example 45] | 10 nM | 7 nM | 0.69 nM | 8 nM | – | – | – | – | –
2 | C=CC(=O)N1[C@@H]2CC[C@H]1C[C@H](Oc1cc3c(Nc4cccc(Cl)c4F)ncnc3cc1OC)C2 [Example 33] | 3 nM | 6 nM | – | 7 nM | – | – | – | – | –
3 | C=CC(=O)N1[C@@H]2CC[C@H]1C[C@H](Oc1cc3c(Nc4ccc(F)c(Cl)c4)ncnc3cc1OC)C2 [Example 40] | 2 nM | 5 nM | 0.34 nM | 11 nM | – | – | – | – | –
4 | C=CC(=O)N1[C@@H]2CC[C@H]1C[C@H](Oc1cc3c(Nc4ccc(Cl)c(Cl)c4F)ncnc3cc1O[C@H]1CCOC1)C2 [Example 26] | 4 nM | 5 nM | 0.24 nM | 8 nM | – | – | – | – | –
5 | C=CC(=O)N1C[C@H]2C[C@@H](C1)[C@H]2Oc1cc2c(Nc3ccc(F)c(Cl)c3)ncnc2cc1OC [Example 3] | 17 nM | 5 nM | – | 2 nM | – | – | – | – | –
6 | C=CC(=O)N1[C@@H]2CC[C@H]1C[C@H](Oc1cc3c(Nc4ccc(Cl)c(Cl)c4F)ncnc3cc1OCCCN1CCOCC1)C2 [Example 24] | 3 nM | 6 nM | 0.17 nM | 10 nM | – | – | – | – | –
7 | C=CC(=O)N1C[C@H]2C[C@@H](C1)[C@H]2Oc1cc2c(Nc3cccc(Cl)c3F)ncnc2cc1OC [Example 5] | 157 nM | 24 nM | – | 9 nM | – | – | – | – | –
8 | C=CC(=O)N1[C@@H]2CC[C@H]1C[C@H](Oc1cc3c(Nc4ccc(Cl)c(Cl)c4F)ncnc3cc1OCCOC)C2 [Example 22] | 3 nM | 7 nM | – | 12 nM | – | – | – | – | –
9 | C=CC(=O)N1[C@@H]2CC[C@H]1C[C@H](Oc1cc3c(Nc4ccc(Cl)c(Cl)c4F)ncnc3cc1OC1COC1)C2 [Example 42] | – | – | 0.92 nM | – | – | – | – | – | –
10 | C=CC(=O)N1[C@@H]2CC[C@H]1C[C@H](Oc1cc3c(Nc4ccc(Cl)c(Cl)c4)ncnc3cc1OC)C2 [Example 32] | 3 nM | 5 nM | 0.29 nM | 15 nM | – | – | – | – | –
11 | C=CC(=O)N1[C@@H]2CC[C@H]1C[C@H](Oc1cc3c(Nc4ccc(Cl)c(Cl)c4F)ncnc3cc1OCCO)C2 [Example 25] | 6 nM | 3 nM | 0.19 nM | 6 nM | – | – | – | – | –
12 | C=CC(=O)N1[C@@H]2CC[C@H]1C[C@@H](Oc1cc3c(Nc4ccc(Cl)c(Cl)c4F)ncnc3cc1OC)C2 [Example 7] | 61 nM | 69 nM | – | 40 nM | 188 ± 9 mm3 | 26.10% | 92.63% | significantly better than that of the control compound Poziotinib | 1.5 nM
13 | C=CC(=O)N1[C@@H]2CC[C@H]1C[C@H](Oc1cc3c(Nc4ccc(Cl)c(Cl)c4F)ncnc3cc1OCCCO)C2 [Example 44] | 3 nM | 4 nM | 0.33 nM | 5 nM | – | – | – | – | –
14 | C=CC(=O)N1C[C@H]2C[C@@H](C1)[C@H]2Oc1cc2c(Nc3ccc(C#N)c(Cl)c3)ncnc2cc1OC [Example 4] | 13 nM | 3 nM | – | 2 nM | – | – | – | – | –
15 | C=CC(=O)N1[C@@H]2CC[C@H]1C[C@H](Oc1cc3c(Nc4ccc(Cl)c(Cl)c4F)ncnc3cc1O[C@@H]1CCOC1)C2 [Example 27] | 3 nM | 5 nM | 0.31 nM | 16 nM | – | – | – | – | –
16 | C=CC(=O)N1C[C@H]2C[C@@H](C1)[C@H]2Oc1cc2c(Nc3ccc(Cl)c(Cl)c3F)ncnc2cc1OC [Example 1] | 10 nM | 3 nM | – | 2 nM | 122 ± 11 mm3 | 16.62% | 103.98% | significantly better than that of the control compound Poziotinib | < 1.5 nM
17 | C=CC(=O)N1[C@@H]2CC[C@H]1C[C@H](Oc1cc3c(Nc4ccc(Cl)c(Cl)c4F)ncnc3cc1OCC(F)(F)F)C2 [Example 20] | 10 nM | 11 nM | 0.6 nM | 18 nM | – | – | – | – | –
18 | C=CC(=O)N1C[C@H]2C[C@@H](C1)[C@H]2Oc1cc2c(Nc3ccc(OC(F)(F)F)c(Cl)c3)ncnc2cc1OC [Example 6] | 17 nM | 4 nM | – | 2 nM | – | – | – | – | –
19 | C=CC(=O)N1[C@@H]2CC[C@H]1C[C@H](Oc1cc3c(Nc4ccc(Cl)c(Cl)c4F)ncnc3cc1OCC(=O)NC)C2 [Example 23] | 2 nM | 4 nM | 0.14 nM | 8 nM | – | – | – | – | –
